In the RepoRT retention time repository (doi:10.1016/j.jhazmat.2019.121712):

Assay: Thermo Scientific Acclaim RSLC 120 C18, 100 × 2.1 mm, 2.2 µm, 30 °C; A: 90% water + 10% methanol + 0.01% formic acid + 5 mM ammonium formate; B: methanol + 0.01% formic acid + 5 mM ammonium formate; gradient (min/%B) 0.1/1 3/39 14/99.9 16/99.9
Details: stereoisomer not certain

| LC retention time [min] | Compound |
| --- | --- |
| 14.4 | CCC(C)C1OC2(CCC1C)CC1CC(CC=C(C)C(OC3CC(OC)C(OC4CC(OC)C(O)C(C)O4)C(C)O3)C(C)C=CC=C3COC4C(O)C(C)=CC(C(=O)O1)C34O)O2 (configuration not stated) |
| 9.01 | CC(C)(C)NCC(O)COc1ccccc1C1CCCC1 (configuration not stated) |
| 8.54 | CN(C)CC(CN1c2ccccc2Sc2ccccc21)N(C)C (configuration not stated) |
| 10.6 | COC(=O)C1=C(C)NC(C)=C(C(=O)OCC(C)C)C1c1ccccc1[N+](=O)[O-] (configuration not stated) |
| 6.21 | CC(C)(C(=O)c1cccnc1)c1cccnc1 |
| 4.39 | N=C(N)N1CCc2ccccc2C1 |
| 4.29 | CC(C)(C)NCC(O)COc1cccc2c1CC(O)C(O)C2 (configuration not stated) |
| 3.16 | CCN(CC)C(=O)N1CCN(C)CC1 |
| 2.96 | CNC(=C[N+](=O)[O-])NCCSCc1csc(CN(C)C)n1 |
| 7.87 | CCN(CC)CCOCCOC(=O)C1(c2ccccc2)CCCC1 |
| 7.68 | CCCCNC(=O)NS(=O)(=O)c1ccc(C)cc1 |
| 6.28 | COCC(C)N(C(=O)CS(=O)(=O)O)c1c(C)csc1C (configuration not stated) |
| 5.83 | Cc1ccc2n[nH]nc2c1 |
| 12.9 | CC(O)(C(N)=O)c1ccccc1 (configuration not stated) |
| 5.67 | CN1CCOC(c2ccccc2)c2ccccc2C1 (configuration not stated) |
| 7.83 | CCCOc1ccc(S(=O)(=O)NCCC2CCCN2C)cc1-c1nc2c(CCC)nn(C)c2c(=O)[nH]1 (configuration not stated) |
| 9.81 | CCCc1nn(C)c2c(=O)[nH]c(-c3cc(C(C)=O)ccc3OCC)nc12 |
| 7.45 | N#Cc1ccc2c(c1)N(CCCN1CCC(O)CC1)c1ccccc1S2 |
| 8.27 | Cc1cc(C)n(-c2nc3ccccc3[nH]2)n1 |
| 6.12 | CC(CCN1CCOCC1)OC(=O)C1(c2ccccc2)CCOCC1 (configuration not stated) |
| 7.35 | CCCc1nn(C)c2c(=O)[nH]c(-c3cc(S(=O)(=O)N4CCNCC4)ccc3OCC)nc12 |

| LC retention time [min] | Compound |
| --- | --- |
| 8.79 | CN(C)CCC=C1c2ccccc2C(C)(C)c2ccccc21 |
| 3.26 | N#CC1CCCN1C(=O)CNC12CC3CC(CC(O)(C3)C1)C2 (configuration not stated) |
| 9.79 | Cc1ccc(S(=O)(=O)NC(=O)NC2C3CCC(C)(C2O)C3(C)C)cc1 (configuration not stated) |
| 6.99 | CCCc1nn(C)c2c(=O)[nH]c(-c3cc(C(=O)CN4CCN(C)CC4)ccc3OCC)nc12 |
| 9.18 | CCC1OC(=O)C(C)C(OC2CC(C)(OC)C(O)C(C)O2)C(C)C(OC2OC(C)CC(N(C)C)C2O)C(C)(OC)CC(C)C(=O)C(C)C(O)C1(C)O (configuration not stated) |
| 4.11 | Cc1nc(NS(=O)(=O)c2ccc(N)cc2)oc1C |
| 6.76 | Cc1cc2n[nH]nc2cc1C |
| 1.79 | NCC1CCC(C(=O)O)CC1 (configuration not stated) |
| 5.36 | COc1ccc2[nH]cc(CCNC(C)=O)c2c1 |
| 7.13 | CNC(=O)Nc1nc2ccccc2s1 |
| 5.37 | O=C(NC1CCN(CCc2c[nH]c3ccccc23)CC1)c1ccccc1 |
| 4.72 | Nc1ccc(S(=O)(=O)NC(=O)c2ccccc2)cc1 |
| 6.76 | CCOC(=O)C1=CC(OC(CC)CC)C(NC(C)=O)C(N)C1 (configuration not stated) |
| 5.29 | Cc1cccc(OCC(O)CNC(C)C)c1 (configuration not stated) |
| 4.66 | O=C(O)c1ccccc1C(=O)Nc1ccc(S(=O)(=O)Nc2nccs2)cc1 |
| 3.41 | CCN(CC)CCNC(=O)c1cc(S(C)(=O)=O)ccc1OC |
| 8.92 | CC(=O)Oc1ccc(C(c2ccc(OC(C)=O)cc2)c2ccccn2)cc1 |
| 3.98 | NCCCCC(NC(CCc1ccccc1)C(=O)O)C(=O)N1CCCC1C(=O)O (configuration not stated) |
| 2.43 | Nc1ncnc2nc[nH]c12 |
| 7.01 | CC(CN1c2ccccc2Sc2ccc(S(=O)(=O)N(C)C)cc21)N(C)C (configuration not stated) |
| 3.88 | COc1ccc(Cc2cnc(N)nc2N)cc1OC |

| LC retention time [min] | Compound |
| --- | --- |
| 2.69 | CC(Cn1cnc2c(N)ncnc21)OCP(=O)(O)O (configuration not stated) |
| 6.21 | CC(=O)Oc1cc(C(C)C)c(OCCN(C)C)cc1C |
| 8.11 | CCCc1nc(C)c2c(=O)[nH]c(-c3cc(S(=O)(=O)N4CCN(CC)CC4)ccc3OCC)nn12 |
| 4.31 | Cc1cc(C)nc(NS(=O)(=O)c2ccc(N)cc2)n1 |
| 6.84 | CN1C(C(=O)Nc2ccccn2)=C(O)c2ccccc2S1(=O)=O |
| 6.14 | CNCCCC(C#N)(c1ccc(OC)c(OC)c1)C(C)C (configuration not stated) |
| 10.9 | CC(C)(C)c1ccc(C(=O)CCCN2CCC(OC(c3ccccc3)c3ccccc3)CC2)cc1 |
| 4.86 | COc1cc(C(=O)NCc2ccc(OCCN(C)C)cc2)cc(OC)c1OC |
| 7.46 | CSc1nnc(C(C)(C)C)c(=O)[nH]1 |
| 4.64 | CCN(CC)C(=O)c1cccnc1 |
| 9.61 | Cc1ccc2c(-c3ccccc3)nc(=O)n(C(C)C)c2c1 |
| 9.82 | Cc1ccc(C(C)NC(=O)C(NC(=O)OC(C)C)C(C)C)cc1 (configuration not stated) |
| 4.98 | Cc1nccn1CC1CCc2c(c3ccccc3n2C)C1=O (configuration not stated) |
| 7.88 | CCC1OC(=O)CC(O)C(C)C(OC2OC(C)C(OC3CC(C)(O)C(O)C(C)O3)C(N(C)C)C2O)C(CC=O)CC(C)C(=O)C=CC(C)=CC1COC1OC(C)C(O)C(OC)C1OC (configuration not stated) |
| 12.8 | CCC(C)N(C(=O)SCc1ccccc1)C(C)CC (configuration not stated) |
| 8.49 | CNCC(C)CN1c2ccccc2CCc2ccccc21 (configuration not stated) |
| 4.99 | Cc1cc2c(s1)Nc1ccccc1N=C2N1CCN(C)CC1 |
| 3.79 | CC(NCCc1ccc(O)cc1)C(O)c1ccc(O)cc1 (configuration not stated) |
| 6.08 | CC1(C)OC2COC3(COS(N)(=O)=O)OC(C)(C)OC3C2O1 (configuration not stated) |

| Compound | LC retention time [min] |
| --- | --- |
| CC(C)c1ccc(NC(=O)N(C)C)cc1 | 8.32 |
| CCCCCn1nc(C(=O)c2cccc3ccccc23)c2ccccc21 | 13.1 |
| CN1CCC(N(Cc2ccccc2)c2ccccc2)CC1 | 7.77 |
| COC(=O)c1sccc1S(=O)(=O)NC(=O)Nc1nc(C)nc(OC)n1 | 6.24 |
| CCC(c1cccc(O)c1)C(C)CN(C)C (configuration not stated) | 5.01 |
| CNC(=O)ON=CC(C)(C)SC | 6.17 |
| COc1cc(CC(C)N)c(OC)cc1C (configuration not stated) | 5.83 |
| c1ccc2c(c1)Cc1ccccc1N1CCNCC21 (configuration not stated) | 6.86 |
| CCCN1CC(CSC)CC2c3cccc4[nH]cc(c34)CC21 (configuration not stated) | 6.19 |
| COP(N)(=S)Oc1ccccc1C(=O)OC(C)C (configuration not stated) | 8.32 |
| CCCCN(CC)C(=O)SCCC | 11.5 |
| COc1ccc2[nH]c(C)c(CCN(C)C)c2c1 | 4.19 |
| CNC(=O)C=C(C)OP(=O)(OC)OC | 4.36 |
| CCCCCn1cc(C(=O)c2cccc3ccccc23)c2cccc(O)c21 | 11.8 |
| C=C(C)C1Cc2c(ccc3c2OC2COc4cc(OC)c(OC)cc4C2C3=O)O1 (configuration not stated) | 10.5 |
| CCCCCCn1cc(C(=O)c2cccc3ccccc23)cc1-c1ccccc1 | 13.3 |
| COC12CCC3(CC1C(C)(O)C(C)(C)C)C1Cc4ccc(O)c5c4C3(CCN1CC1CC1)C2O5 (configuration not stated) | 7.96 |
| CCCSC(=O)N(CCC)CCC | 11.5 |
| CC12CCC3C(CCC4=CC(=O)CCC43C)C1CCC2=O (configuration not stated) | 9.36 |
| CCS(=O)(=O)c1cccnc1S(=O)(=O)NC(=O)Nc1nc(OC)cc(OC)n1 | 7.09 |
| CCNC(C)Cc1ccccc1 (configuration not stated) | 4.4 |
| Cc1ccc(-c2nc3ccc(C)cn3c2CC(=O)N(C)C)cc1 | 5.8 |
| COc1ccc2[nH]cc(CCN)c2c1 | 4.01 |
| CCCCCC(C)n1c(C)c(C(=O)c2cccc3ccccc23)c2ccccc21 (configuration not stated) | 13 |
| COC1=CC(=O)OC(C=Cc2ccccc2)C1 (configuration not stated) | 8.32 |
| C=CCCCn1cc(C(=O)c2cccc3ccccc23)c2ccccc21 | 12 |

| Compound | LC retention time [min] |
| --- | --- |
| CNC(=O)CSP(=O)(OC)OC | 3.35 |
| CC(Cc1ccc(C(C)(C)C)cc1)CN1CC(C)OC(C)C1 (configuration not stated) | 10.7 |
| CCSC(=O)N1CCCCCC1 | 9.89 |
| CCc1cnc(C2=NC(C)(C(C)C)C(=O)N2)c(C(=O)O)c1 (configuration not stated) | 5.6 |
| c1ccc2c(c1)Cc1cccnc1N1CCNCC21 (configuration not stated) | 5.31 |
| CCOP(=O)(OCC)OP(=O)(OCC)OCC | 6.49 |
| CCOP(=S)(OCC)SCSP(=S)(OCC)OCC | 12.4 |
| COP(=S)(NC(C)C)Oc1ccccc1C(=O)OC(C)C (configuration not stated) | 11.7 |
| CCC(C)c1ccccc1OC(=O)NC (configuration not stated) | 9.05 |
| CSc1nc(NC(C)C)nc(NC(C)C)n1 | 10.1 |
| COc1ccc2c3c1OC1C(OC(C)=O)=CCC4C(C2)N(C)CCC314 (configuration not stated) | 4.47 |
| CCOc1ccc(C(C)(C)COCc2cccc(Oc3ccccc3)c2)cc1 | 14.1 |
| CC12C=CC(=O)C=C1CCC1C2CCC2(C)C(O)CCC12 (configuration not stated) | 9.03 |
| NCC(O)c1ccccc1 (configuration not stated) | 2.84 |
| CCNC(C)Cc1ccc2c(c1)OCO2 (configuration not stated) | 4.39 |
| CC=C1N(C)C(C)CC1(c1ccccc1)c1ccccc1 (configuration not stated) | 6.38 |
| CCC1C2CC3C4N(C)c5ccccc5C45CC(C2C5O)N3C1O (configuration not stated) | 5.19 |
| COP(=S)(OC)Oc1ccc(S(C)(=O)=O)c(C)c1 | 7.57 |
| CNC(=O)Oc1ccccc1C1OCCO1 | 5.16 |
| C=CCC1(C(C)C#CCC)C(=O)NC(=O)N(C)C1=O (configuration not stated) | 9.09 |
| CCCOP(=O)(OCCC)Oc1ccc(SC)cc1 | 10.8 |
| Cc1ccc(NC(=O)NC(C)(C)c2ccccc2)cc1 | 9.68 |
| CCSCCSP(=S)(OC)OC | 10.2 |
| CNC(C)C(=O)c1ccccc1 (configuration not stated) | 3.68 |
| CN(C)c1nc(=O)n(C2CCCCC2)c(=O)n1C | 7.09 |
